Source: patent US10702568B2, “Compositions containing silymarin and sulfoalkyl ether cyclodextrin and methods of using the same” (UNIVERSITY OF KANSAS, priority 2015, dated 2020)
Converted amounts (≈) assume the structure as drawn.

Tests used:
[1] = Mutual phase solubility study of Silymarin-CAPTISOL® complex (method A, method B); format: physicochemical
Protocol: Two methods, method A and method B, were used to prepare the silymarin-CAPTISOL® complexes and the phase solubility of the various components in the complexes were measured and compared. The silymarin extract was obtained from Indena® (Indena Code: 9065110).
In method A, the Silymarin-CAPTISOL® complex was prepared through a hot extraction method. […] The filtrates were analyzed using HPLC for Taxifolin, Silychristin, Silydianin, Silybin A, Silybin B, Isosilybin A and Isosilybin B after appropriate dilution.
In method B, the Silymarin-CAPTISOL® complex was prepared by combining the CAPTISOL® and silymarin at ambient temperature: 120 mg of the extract was incorporated in 0 10, 20, 40, 60, 80 and 100 mM concentrations of CAPTISOL® solution in water. These samples were shook at room temperature for 3 days. At equilibrium, samples were centrifuged at 10,000 RPM and filtered using Millipore (0.22 μm) syringe filter. The filtrates were analyzed using HPLC for Taxifolin, Silychristin, Silydianin, Silybin A, Silybin B, Isosilybin A and Isosilybin B after appropriate dilution.
The solubility of the Silymarin-CAPTISOL® complexes prepared using method A and method B were measured.

[2] = Pharmacokinetic study in rat; format: in vivo; conditions: oral, FIG. 21A
Protocol: The Silymarin-CAPTISOL® complex was administered to rat to test its pharmacokinetic properties.
On arrival rats were housed individually in cages at animal care facility in a temperature and humidity controlled room with a 12 h:12 h (light:dark) cycles. The rats were provided with free access to food and water for one week before using for experimental purpose. The 12 rats were equally divided into three groups—Group I: silymarin-CAPTISOL® complex with a CAPTISOL® concentration of 100 mM for oral administration; Group II: silymarin suspension (Control); and Group III: silymarin complex with a CAPTISOL® concentration of 100 mM for intravenous administration. The animals were fasted overnight with free access to water. On the day of experiment, the rat was removed from animal care facility and brought to the procedure lab. The animal was weighed and appropriate dosing volume was determined. For oral administration, rat's head was held in place by gently extending the head back and supporting the lower body. The gavage tube was placed in the mouth and advanced along the lower palate till the esophagus, and the silymarin was administered through the tube. For intravenous administration, the silymarin-CAPTISOL® complex was administered by slow bolus intravenous injection into the tail vein. Approximately 200 μL blood was drawn into heparin coated tubes at pre dose, 0.15, 0.5, 1, 2, 4, 8, 10 and 24 h for oral group II and for intravenous group III. The sampling time points were predose, 0.12, 0.25, 0.5, 1, 2, 4, 8 and 24 h through the jugular vein catheter. Plasma was harvested by centrifuging the blood at 4000 RPM for 5 min and stored frozen at −80±10° C. until analysis.
Stored plasma was thawed just before performing the silymarin components analysis. 200 μL of acetonitrile containing 0.1% of ammonia was added to 50 μL of plasma, and this mixture was vortexed for 5 min and centrifuged at 4° C. for 5 min at 10,000 RPM. After centrifugation, the supernatant was separated and injected into HPLC for analysis of silymarin constituents taxifolin, silydianin, silychristin, silybin A, silybin B, isosilybin A and isosilybin B.
The plasma concentration-time curves of silybin A, silybin B, isosilybin A, and isosilybin B in the Silymarin-CAPTISOL® sample of Group I and the control sample (silymarin suspension) are respectively shown in FIGS. 20A to 20D.

[3] = Solubility of silymarin components in water (Example 10, HPLC); format: physicochemical; conditions: water; component of Indena silymarin extract, HPLC; read-out: Solubility in water
Protocol: Silymarin components including taxifolin, silydianin, silychristin, silybin A, silybin B, isosilybin A, and isosilybin B were tested for their solubility in water and also for their Log D value. The silymarin extract was obtained from Indena® (Indena Code: 9065110). The HPLC system consisted of Waters system equipped with performance PLUS inline degasser along dual λ absorbance detector set at 288 nm. The chromatographic separation of silymarin constituents was achieved on a Symmetry Shield RP18 column (150×4.6 mm, 5 μm); which was maintained at ambient room temperature conditions. The binary mobile phase system consisted of reservoir A (methanol: 10 mM ammonium acetate pH 5 [65:35 v/v]) and reservoir B (10 mM ammonium acetate, pH 5) were run as per gradient program (0-1.9 min: 25% A and 75% B; 2.0-14.9 min: 80% A and 20% B and 15-37.9 min: 80% A and 20% B and 38-40 min: 25% A and 75% B). The flow rate was 1 mL/min throughout the analytical run.

number of fold increase in solubility ([1]; CAPTISOL® 10 mM, Method A (hot extraction 70-75° C., 60 minutes)): 1.95 fold
number of fold increase in solubility ([1]; CAPTISOL® 10 mM, Method B (ambient temperature, 3 days)): 1.97 fold
number of fold increase in solubility ([1]; CAPTISOL® 20 mM, Method A (hot extraction 70-75° C., 60 minutes)): 3.32 fold
number of fold increase in solubility ([1]; CAPTISOL® 20 mM, Method B (ambient temperature, 3 days)): 3.06 fold
number of fold increase in solubility ([1]; CAPTISOL® 40 mM, Method A (hot extraction 70-75° C., 60 minutes)): 3.54 fold
number of fold increase in solubility ([1]; CAPTISOL® 40 mM, Method B (ambient temperature, 3 days)): 3.39 fold
number of fold increase in solubility ([1]; CAPTISOL® 60 mM, Method A (hot extraction 70-75° C., 60 minutes)): 4.26 fold
number of fold increase in solubility ([1]; CAPTISOL® 60 mM, Method B (ambient temperature, 3 days)): 3.48 fold
number of fold increase in solubility ([1]; CAPTISOL® 80 mM, Method A (hot extraction 70-75° C., 60 minutes)): 4.51 fold
number of fold increase in solubility ([1]; CAPTISOL® 80 mM, Method B (ambient temperature, 3 days)): 3.47 fold
number of fold increase in solubility ([1]; CAPTISOL® 100 mM, Method A (hot extraction 70-75° C., 60 minutes)): 4.77 fold
number of fold increase in solubility ([1]; CAPTISOL® 100 mM, Method B (ambient temperature, 3 days)): 3.72 fold
AUC of Silymarin-CAPTISOL® complex compared with the control sample [2]: higher AUC
solubility [3]: 550 µg/mL (≈ 1810 µM)
Compound: O=C1c2c(O)cc(O)cc2O[C@H](c2ccc(O)c(O)c2)[C@H]1O [Taxifolin]
